The values that follow are results of earlier work, collected in US20240173413A1, “Ultrasound Responsive Nanobubble Compositions and Methods of Production and Use Thereof” (University of Central Florida Research Foundation, lnc., priority 2021, published 2024).

In the series the test system is patients with postmenopausal osteoporosis. To be noted: Phase III, development terminated.

Where two headings read alike, the source gives them in different places.

For the compound `CC(C)(F)C[C@H](N[C@@H](c1ccc(-c2ccc(S(C)(=O)=O)cc2)cc1)C(F)(F)F)C(=O)NC1(C#N)CC1` [Odanacatib], the adverse effects result is given as “increased risk of stroke”. Further, under “listed as ODN”, the adverse effects result is reported as “cardio-cerebrovascular adverse effects”.
